Results published in the supplement of paper PMC11208160.

Assay: recombinant barcode read abundance after kanamycin selection (control-corrected) (log10(CPM+1)); higher = more efficient recombination; sequences stand for … in AGTGCAGAGAAAATCGGCCAGTTTTCTCTGCCTGCAGTCCGCATGCCGT…AGATTTATGCAGCGGACTGCCTTTCTCCCAAAGTGATAAACCGGACAGTATCATGGACCGGTTTTCCCGGTAATCCGTATTTGCAAGGTTGGTTTCACT; site = the 11-nt target
Method: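 Pooled E. coli target-specificity screen for the IS621 bridge recombinase. Each library plasmid pairs an 11-nt target (CT core) with a bridge RNA whose target-binding loop (9-nt LTG + 4-nt RTG) is reprogrammed; the rest of the 177-nt WT IS621 bridge RNA scaffold is fixed. The plasmid is co-electroporated with a WT donor plasmid; recombinase is induced with 0.1 mM IPTG and recombinants are selected on kanamycin. Recombinant barcodes are sequenced, converted to CPM, averaged over two biological replicates and corrected by the unselected control CPM. Molecule = full bridge RNA written as DNA: LTG = specificity nt 1-9, RTG = reverse complement of specificity nt 8-11, in the WT scaffold.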
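Further: IS621 recombinase and bridge RNA in Escherichia coli cells.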

Row | Sequence | recombinant barcode read abundance (log10)
1 | ACAAAGCCTTGGGTTCTAACCTGTTGCCT (site ACAAAGCCTAG) | 0.85
2 | ACAAAGCCTTGGGTTCTAACCTGTTGCCT (site ACAAATCCTAG) | 0.0552
3 | ACAAATACTTGGGTTCTAACCTGTTGCGG (site ACAAATACTCC) | 0.905
4 | ACAAATACTTGGGTTCTAACCTGTTGCGG (site CGTTCACCTAT) | 0.11
5 | ACAAGCCCTTGGGTTCTAACCTGTTGCCT (site AAAAGCCCTAG) | 0.189
6 | ACAAGCCCTTGGGTTCTAACCTGTTGCCT (site ACAAGCCCTAG) | 0.643
7 | ACAAGCCCTTGGGTTCTAACCTGTTGCCT (site AGAAGCCCTAG) | 0.0546
8 | ACAAGCCCTTGGGTTCTAACCTGTTGCCT (site ATAAGCCCTAG) | 0.0711
9 | ACAAGGCCTTGGGTTCTAACCTGTTGCCT (site ACAAGGCCTAG) | 0.16
10 | ACAAGGCCTTGGGTTCTAACCTGTTGCCT (site CCAAGGCCTAG) | 0.784
11 | ACAAGGCCTTGGGTTCTAACCTGTTGCCT (site GCAAGGCCTAG) | 0.126
12 | ACAAGGCCTTGGGTTCTAACCTGTTGCCT (site TCAAGGCCTAG) | 0.0644
13 | ACAATAGCTTGGGTTCTAACCTGTTGCCT (site ACAATACCTCG) | 0.0732
14 | ACAATAGCTTGGGTTCTAACCTGTTGCCT (site ACAATAGCTAG) | 1.64
15 | ACACAGACTTGGGTTCTAACCTGTTGCGC (site ACAAAGACTGC) | 0.174
16 | ACACAGACTTGGGTTCTAACCTGTTGCGC (site ACACAGACTGC) | 1.08
17 | ACACAGACTTGGGTTCTAACCTGTTGCGC (site ACAGAGACTGC) | 0.114
18 | ACACAGACTTGGGTTCTAACCTGTTGCGC (site ACATAGACTGC) | 0.00702
19 | ACACCCTCTTGGGTTCTAACCTGTTGCTT (site ACACCCTCTAA) | 2.5
20 | ACACCCTCTTGGGTTCTAACCTGTTGCTT (site CGACCCTCTAA) | 0.208

Row | Sequence | recombinant barcode read abundance (log10)
21 | ACAGAATCTTGGGTTCTAACCTGTTGCCT (site ACAGAATCTAG) | 1.69
22 | ACAGAATCTTGGGTTCTAACCTGTTGCCT (site ACAGGATCTAA) | 0.0318
23 | ACAGACGCTTGGGTTCTAACCTGTTGCCT (site ACAGACGCTAG) | 0.721
24 | ACAGACGCTTGGGTTCTAACCTGTTGCCT (site ACAGCCGCTAG) | 0.151
25 | ACAGACGCTTGGGTTCTAACCTGTTGCCT (site ACAGGCGCTAG) | 0.163
26 | ACAGACGCTTGGGTTCTAACCTGTTGCCT (site ACAGTCGCTAG) | 0.0906
27 | ACAGAGACTTGGGTTCTAACCTGTTGCTA (site ACAGAGACTGT) | 0.121
28 | ACAGAGACTTGGGTTCTAACCTGTTGCTA (site ACAGAGACTTA) | 1.35
29 | ACAGTAGCTTGGGTTCTAACCTGTTGCGG (site ACAGTAGCTCC) | 1.81
30 | ACAGTAGCTTGGGTTCTAACCTGTTGCGG (site ACAGTAGCTCG) | 0.248
31 | ACAGTGACTTGGGTTCTAACCTGTTGCCT (site ACAATGACTAG) | 1.23
32 | ACAGTGACTTGGGTTCTAACCTGTTGCCT (site ACAGTGACTAG) | 2.49
33 | ACAGTGGCTTGGGTTCTAACCTGTTGCGG (site ACAGTGGCTCC) | 1.53
34 | ACAGTGGCTTGGGTTCTAACCTGTTGCGG (site CTTCGCCCTAA) | 0.0955
35 | ACAGTGTCTTGGGTTCTAACCTGTTGCGG (site ACAATGTCTCC) | 1.37
36 | ACAGTGTCTTGGGTTCTAACCTGTTGCGG (site ACACTGTCTCC) | 0.0611
37 | ACAGTGTCTTGGGTTCTAACCTGTTGCGG (site ACAGTGTCTCC) | 2.77
38 | ACAGTGTCTTGGGTTCTAACCTGTTGCGG (site ACATTGTCTCC) | 0.324
39 | ACATAAGCTTGGGTTCTAACCTGTTGCTA (site ACATAAGCTTA) | 1.11
40 | ACATAAGCTTGGGTTCTAACCTGTTGCTA (site GGCGGCTCTAG) | 0.18

Row | Sequence | recombinant barcode read abundance (log10)
41 | ACATAGACTTGGGTTCTAACCTGTTGCGC (site ACAAAGACTGC) | 0.084
42 | ACATAGACTTGGGTTCTAACCTGTTGCGC (site ACACAGACTGC) | 0.858
43 | ACATAGACTTGGGTTCTAACCTGTTGCGC (site ACAGAGACTGC) | 0.168
44 | ACATAGACTTGGGTTCTAACCTGTTGCGC (site ACATAGACTGC) | 1.35
45 | ACATAGTCTTGGGTTCTAACCTGTTGCAG (site ACATAGTCTCT) | 1.01
46 | ACATAGTCTTGGGTTCTAACCTGTTGCAG (site CCTTAGTCTCT) | 0.0322
47 | ACATAGTCTTGGGTTCTAACCTGTTGCTG (site ACATAGTCTCA) | 0.71
48 | ACATAGTCTTGGGTTCTAACCTGTTGCTG (site ACTTAGTCTTA) | 0.0401
49 | ACATCTCCTTGGGTTCTAACCTGTTGCCT (site ACATCTCCTAG) | 0.503
50 | ACATCTCCTTGGGTTCTAACCTGTTGCCT (site CCATCTCCTAG) | 0.239
51 | ACATCTCCTTGGGTTCTAACCTGTTGCCT (site GCATCTCCTAG) | 0.0778
52 | ACATCTCCTTGGGTTCTAACCTGTTGCCT (site TCATCTCCTAG) | 0.0426
53 | ACATGATCTTGGGTTCTAACCTGTTGCCT (site ACAATATCTAG) | 0.0106
54 | ACATGATCTTGGGTTCTAACCTGTTGCCT (site ACATGATCTAG) | 1.04
55 | ACATTTCCTTGGGTTCTAACCTGTTGCCT (site AAATTTCCTAG) | 0.0832
56 | ACATTTCCTTGGGTTCTAACCTGTTGCCT (site ACATTTCCTAG) | 0.1
57 | ACATTTCCTTGGGTTCTAACCTGTTGCCT (site AGATTTCCTAG) | 0.138
58 | ACATTTCCTTGGGTTCTAACCTGTTGCCT (site ATATTTCCTAG) | 0.58
59 | ACCAGAGCTTGGGTTCTAACCTGTTGCCT (site ACAAGAGCTAG) | 0.131
